Assay results as given in PubChem BioAssay AID330 (DTP/NCI, 2004).
Values joined by “and” are separate entries in the source; they are usually repeats but may differ in a detail not shown here. Equal entries are not always repeated. Toxic doses and inconclusive results are not listed. How the source made its calls: active means survival T/C of 150% or more; inactive means T/C below 125% in these data.

Test system: P388 leukemia ip, CD2F1 mice, survival T/C
Assay: NCI In Vivo Anticancer Drug Screen. Data for tumor model P388 Leukemia (intraperitoneal) in CD2F1 (CDF1) mice
Settings: endpoint: median survival time, higher = longer survival
Summary of the method: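 Mice carrying the transplanted tumor received test compound or vehicle. Survival was recorded in each group, and the value is the treated-group measurement divided by that of the vehicle-treated control group.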

[1] = dose: 50.0 mg/kg/injection, schedule: Q01DX009 (ip), vehicle: Klucel (hydroxypropylcellulose) (HPC)
[2] = dose: 100.0 mg/kg/injection, schedule: Q01DX009 (ip), vehicle: Klucel (hydroxypropylcellulose) (HPC)
[3] = dose: 200.0 mg/kg/injection, schedule: Q01DX009 (ip), vehicle: Klucel (hydroxypropylcellulose) (HPC)
[4] = dose: 100.0 mg/kg/injection, schedule: Q04DX002 (ip), vehicle: saline
[5] = dose: 200.0 mg/kg/injection, schedule: Q04DX002 (ip), vehicle: saline
[6] = dose: 400.0 mg/kg/injection, schedule: Q04DX002 (ip), vehicle: saline
[7] = dose: 50.0 mg/kg/injection, schedule: Q01DX005 (ip), vehicle: Klucel (hydroxypropylcellulose) (HPC)
[8] = dose: 100.0 mg/kg/injection, schedule: Q01DX005 (ip), vehicle: Klucel (hydroxypropylcellulose) (HPC)
[9] = dose: 200.0 mg/kg/injection, schedule: Q01DX005 (ip), vehicle: Klucel (hydroxypropylcellulose) (HPC)
[10] = dose: 50.0 mg/kg/injection, schedule: Q01DX005 (ip), vehicle: saline with Tween-80
[11] = dose: 100.0 mg/kg/injection, schedule: Q01DX005 (ip), vehicle: saline with Tween-80
[12] = dose: 200.0 mg/kg/injection, schedule: Q01DX005 (ip), vehicle: saline with Tween-80
[13] = dose: 12.5 mg/kg/injection, schedule: Q01DX009 (ip), vehicle: Klucel (hydroxypropylcellulose) (HPC)
[14] = dose: 25.0 mg/kg/injection, schedule: Q01DX009 (ip), vehicle: Klucel (hydroxypropylcellulose) (HPC)
[15] = dose: 6.25 mg/kg/injection, schedule: Q01DX009 (ip), vehicle: saline with Tween-80
[16] = dose: 100.0 mg/kg/injection, schedule: Q04DX003 (ip), vehicle: saline
[17] = dose: 200.0 mg/kg/injection, schedule: Q04DX003 (ip), vehicle: saline
[18] = dose: 400.0 mg/kg/injection, schedule: Q04DX003 (ip), vehicle: saline

Measured: T/C

CN1C2C=CC(=O)C1C1C(=O)N(c3ccccc3)C(=O)C12 (stereo not given)
inactive: dose: 17.5 mg/kg/injection, schedule: Q01DX005 (ip), vehicle: Klucel (hydroxypropylcellulose) (HPC) 109 % of control and 121 % of control | dose: 35.0 mg/kg/injection, schedule: Q01DX005 (ip), vehicle: Klucel (hydroxypropylcellulose) (HPC) 113 % of control and 118 % of control | dose: 70.0 mg/kg/injection, schedule: Q01DX005 (ip), vehicle: Klucel (hydroxypropylcellulose) (HPC) 121 % of control

CC[CH2][Sn]([CH2]CC)([CH2]CC)[CH2]CCBr
inactive: dose: 50.0 mg/kg/injection, schedule: Q01DX009 (ip), vehicle: saline with Tween-80 106 % of control | dose: 100.0 mg/kg/injection, schedule: Q01DX009 (ip), vehicle: saline with Tween-80 100 % of control

COC(=O)C(Cc1ccccc1C(N)=O)(OC)OC
inactive: dose: 50.0 mg/kg/injection, schedule: Q01DX005 (ip), vehicle: saline 98 % of control | dose: 100.0 mg/kg/injection, schedule: Q01DX005 (ip), vehicle: saline 99 % of control | dose: 200.0 mg/kg/injection, schedule: Q01DX005 (ip), vehicle: saline 98 % of control

Nc1cccc(CCCCc2ccc(Cl)c(S(=O)(=O)F)c2)c1
inactive: dose: 50.0 mg/kg/injection, schedule: Q01DX009 (ip), vehicle: saline sonified 86 % of control | dose: 100.0 mg/kg/injection, schedule: Q01DX009 (ip), vehicle: saline sonified 86 % of control | dose: 200.0 mg/kg/injection, schedule: Q01DX009 (ip), vehicle: saline sonified 95 % of control

CCN(CC)C(=O)C(F)C(F)(F)C(F)(F)C(F)C(=O)N(CC)CC (stereo not given)
inactive: [1] 108 % of control | [2] 99 % of control | [3] 98 % of control

COC12CC(C)(C)OC1C(C)C1C(CC3(C)C4CC=C5C(C=C(O)C(=O)C5(C)C)C4(C)C(=O)CC13C)O2 (stereo not given)
inactive: [4] 100 % of control | [5] 100 % of control | [6] 100 % of control

CCCC[N+](CCCC)=c1ccc2nc3c(C)cc(N(CC)CC)cc3sc-2c1
inactive: dose: 0.75 mg/kg/injection, schedule: Q01DX005 (ip), vehicle: saline 111 % of control | dose: 1.5 mg/kg/injection, schedule: Q01DX005 (ip), vehicle: saline 112 % of control | dose: 3.0 mg/kg/injection, schedule: Q01DX005 (ip), vehicle: saline 118 % of control and 120 % of control

COC(c1cccc(C(OC)(C(F)(F)F)C(F)(F)F)c1)(C(F)(F)F)C(F)(F)F
inactive: dose: 25.0 mg/kg/injection, schedule: Q01DX005 (ip), vehicle: Klucel (hydroxypropylcellulose) (HPC) 101 % of control | [7] 96 % of control | [8] 103 % of control | [9] 90 % of control

O=C1CN(c2cccc(C(F)(F)F)c2)C(=O)CN1/N=C/c1ccc[nH]1
inactive: [10] 101 % of control | [11] 100 % of control | [12] 99 % of control

Nc1ccccc1C(=O)Nc1ccc(Cl)cc1Cl
inactive: [10] 104 % of control | [11] 92 % of control | [12] 92 % of control

C[N+](C)(Cc1ccc(Br)cc1)C1c2ccccc2-c2ccccc21
inactive: [13] 107 % of control | [14] 108 % of control | [1] 115 % of control and 98 % of control

O=[N+]([O-])c1cccc(C=Nc2ccc(/C=C/C3(CCl)OCCO3)cc2)c1
inactive: [1] 98 % of control | [2] 97 % of control | [3] 91 % of control

NC(=O)C(Cl)Cl
inactive: [4] 108 % of control | [5] 100 % of control | [6] 100 % of control

CCNC(=O)OCc1c(COC(=O)NCC)c(-c2ccc(F)cc2)n2c1CCC2
inactive: dose: 3.13 mg/kg/injection, schedule: Q01DX009 (ip), vehicle: distilled water + Tween-80 123 % of control

COC(=O)C1=[N+]([O-])[N+]([O-])=C(C(=O)OC)C1=O
inactive: [13] 95 % of control | [14] 94 % of control

CCC(=N/NC(=S)NCCN1CCCCC1)/C(CC)=N\NC(=S)NCCN1CCCCC1
inactive: dose: 3.13 mg/kg/injection, schedule: Q01DX009 (ip), vehicle: saline with Tween-80 100 % of control | [15] 103 % of control

CCC(CC)C(Nc1nncs1)Nc1nncs1
inactive: [10] 90 % of control | [11] 112 % of control | [12] 116 % of control

COC(=O)C(C)NC(=O)C(Cc1c[nH]c2ccccc12)NC(=O)OC(C)(C)C (stereo not given)
inactive: dose: 12.5 mg/kg/injection, schedule: Q01DX009 (ip), vehicle: other 88 % of control | dose: 25.0 mg/kg/injection, schedule: Q01DX009 (ip), vehicle: other 89 % of control | dose: 50.0 mg/kg/injection, schedule: Q01DX009 (ip), vehicle: other 100 % of control | dose: 100.0 mg/kg/injection, schedule: Q01DX009 (ip), vehicle: other 101 % of control | dose: 200.0 mg/kg/injection, schedule: Q01DX009 (ip), vehicle: other 117 % of control

Cc1ccc(S(=O)(=O)C(C)(C)C(O)c2ccccc2)cc1 (stereo not given)
inactive: [10] 100 % of control | [11] 99 % of control | [12] 92 % of control

Clc1cccc2sc(Nc3c4ccccc4nc4ccccc34)nc12
inactive: dose: 12.5 mg/kg/injection, schedule: Q04DX002 (ip), vehicle: distilled water + Tween-80 95 % of control | dose: 25.0 mg/kg/injection, schedule: Q04DX002 (ip), vehicle: distilled water + Tween-80 89 % of control | dose: 50.0 mg/kg/injection, schedule: Q04DX002 (ip), vehicle: distilled water + Tween-80 95 % of control | dose: 100.0 mg/kg/injection, schedule: Q04DX002 (ip), vehicle: distilled water + Tween-80 97 % of control | dose: 200.0 mg/kg/injection, schedule: Q04DX002 (ip), vehicle: distilled water + Tween-80 97 % of control | dose: 400.0 mg/kg/injection, schedule: Q04DX002 (ip), vehicle: distilled water + Tween-80 97 % of control

N#C/C1=C(\C#N)N=Cc2ccccc2NCCNc2ccccc2C=N1
inactive: [16] 91 % of control | [17] 98 % of control | [18] 100 % of control

O=C(O)Cc1cn2ccncc2n1
inactive: dose: 100.0 mg/kg/injection, schedule: Q01DX001 (ip), vehicle: Klucel (hydroxypropylcellulose) (HPC) 90 % of control | dose: 200.0 mg/kg/injection, schedule: Q01DX001 (ip), vehicle: Klucel (hydroxypropylcellulose) (HPC) 101 % of control | dose: 400.0 mg/kg/injection, schedule: Q01DX001 (ip), vehicle: Klucel (hydroxypropylcellulose) (HPC) 101 % of control

OCc1c(Cl)n(-c2ccccc2)c2ccccc12
inactive: dose: 100.0 mg/kg/injection, schedule: Q04DX002 (ip), vehicle: Klucel (hydroxypropylcellulose) (HPC) 96 % of control | dose: 400.0 mg/kg/injection, schedule: Q04DX002 (ip), vehicle: Klucel (hydroxypropylcellulose) (HPC) 98 % of control

NS(=O)(=O)c1ccc(C(=O)O)s1
inactive: [10] 104 % of control | [11] 100 % of control

Clc1[nH]nc2ccccc12
inactive: [15] 95 % of control | dose: 12.5 mg/kg/injection, schedule: Q01DX009 (ip), vehicle: saline with Tween-80 100 % of control | dose: 12.5 mg/kg/injection, schedule: Q04DX003 (ip), vehicle: saline with Tween-80 100 % of control | dose: 25.0 mg/kg/injection, schedule: Q01DX009 (ip), vehicle: saline with Tween-80 86 % of control | dose: 25.0 mg/kg/injection, schedule: Q04DX003 (ip), vehicle: saline with Tween-80 100 % of control | dose: 50.0 mg/kg/injection, schedule: Q04DX003 (ip), vehicle: saline with Tween-80 100 % of control

C=C(C)C1CCC(C)CC(=O)C1 (stereo not given)
inactive: dose: 100.0 mg/kg/injection, schedule: Q04DX003 (ip), vehicle: saline + Tween-80 + alcohol 100 % of control | dose: 200.0 mg/kg/injection, schedule: Q04DX003 (ip), vehicle: saline + Tween-80 + alcohol 91 % of control | dose: 400.0 mg/kg/injection, schedule: Q04DX003 (ip), vehicle: saline + Tween-80 + alcohol 91 % of control

CC(NC(=O)C1CC(O)CN1C(=O)CN)C(=O)O (stereo not given)
inactive: [7] 96 % of control | [8] 110 % of control | [9] 94 % of control

COc1ccc([N+](=O)[O-])c(C#N)c1
inactive: [16] 98 % of control | [17] 93 % of control | [18] 100 % of control

O=P(C(=S)NC1CC2C=CC1C2)(c1ccccc1)c1ccccc1 (stereo not given)
inactive: [14] 95 % of control | [1] 100 % of control and 88 % of control | [2] 91 % of control | [3] 90 % of control
